Measurements published in US20090131354A1, “miR-126 REGULATED GENES AND PATHWAYS AS TARGETS FOR THERAPEUTIC INTERVENTION” (priority 2007, published 2009).

Tested on: human PPC-1 prostate cancer xenograft
Assay: PPC-1 prostate cancer xenograft
Format: in vivo, NOD/SCID mice
Settings: PPC-1 xenograft
Protocol: Therefore, hsa-miR-126 is a likely to interfere with prostate tumor growth in the animal. To explore this possibility, the therapeutic potential of synthetic hsa-miR-126 miRNA was evaluated in the animal using the PPC-1 human prostate cancer xenograft. As described in Example 8, 5×10^6 PPC-1 cells per animal were electroporated with 1.6 μM synthetic hsa-miR-126 or negative control miRNA (Pre-miR™-hsa-miR-126, Ambion cat. no. AM17100; NC, Pre-miR™ microRNA Precursor Molecule-Negative Control #2, Ambion cat. no. AM17111), mixed with BD Matrigel™, (BD Biosciences; San Jose, Calif., USA; cat. no. 356237) in a 1:1 ratio and implanted subcutaneously into the lower back of NOD/SCID mice (Charles River Laboratories, Inc.; Wilmington, Mass., USA). A group of 7 mice was injected with hsa-miR-126 treated PPC-1 cells, and a group of 7 animals was injected with PPC-1 cells treated with negative control miRNA. To maintain steady levels of miRNA, 6.25 μg of each hsa-miR-126 or negative control miRNA conjugated with the lipid-based siPORT™ amine delivery agent (Ambion, Austin, Tex.; cat. no. AM4502) were repeatedly administered on days 7, 13 and 20 via intra-tumoral injections. Given an average mouse weight of 20 g, this dose equals 0.3125 mg/kg. Tumor growth was monitored by taking caliper measurements every 1-2 days for 22 days. Tumor volumes were calculated using the formula, Volume=length×width×width/2, in which the length is greater than the width, and plotted over time (FIG. 13). Standard deviations and data points with p values <0.01, indicating statistical significance, are shown in graph.

For “hsa-miR-126 (UCGUACCGUGAGUAAUAAUGC; synthetic pre-miR form, further chemistry not given here) [Synthetic hsa-miR-126 (Pre-miR™-hsa-miR-126, Ambion cat. no. AM17100)]”, the “average volume of tumors” value (day 22, 6.25 μg intratumoral days 7, 13, 20) was 157 mm^3, the “tumor volumes after treatment” value (in response to treatments on days 7 and 13) was “approximately 130 mm^3” and the tumor growth (repeated dosing) was “blocked tumor growth”.
